In patent EP2272817A1, “PAI-1 INHIBITOR” (Institute of Medicinal Molecular Design, Inc., priority 2008, dated 2009) one finds inhibition data, which are given here for eight compounds.

Assay [1] has as its target T1, recombinant human PAI-1 (Homo sapiens, UniProt P05121). The assay is described as follows: Test Example 4: Human PAI-1 Inhibitory Activity (amount of PAI-1 bound to plate-coated one-chain tPA, ELISA). Format: biochemical. More on the design: purchased Molecular Innovations, Inc. Conditions: human PAI-1 bound to tPA, read-out: Inhibition Rate of PAI-1 Activity (%); for inhibition at 0.3 µM: Compound Concentration 0.3µM; for inhibition at 1 µM: Compound Concentration 1µM; for inhibition at 3 µM: Compound Concentration 3µM. The protocol: 100 µl of tPA solution, where one-chain recombinant tPA (hereinafter reffered to as tPA; American diagnostica, inc.) had been diluted with Buffer A to acheive a concentration of 10 µg/ml, was added to each well of a 96-well plate (Nunc Maxisorp), and the plate was incubated for one night at 4 °C to be coated with tPA. Then, after suction of tPA solution from the 96-well plate, the plate was rinsed successively with Buffer A and Buffer B. To Buffer B, solutions of the compound according to the present invention dissolved with DMSO (final DMSO concentration: 0.2 %) and recombinant human PAI-1 (Molecular Innovations, Inc.) were added. The mixtures were blended so that the final concentrations would be 0.1 to 3.0 µM and 50 ng/ml respectively, and were incubated for 15 minutes on ice. These mixed solutions were added to the rinsed 96-well plate at 100 µl/well, and incubated for 60 minutes at room temperature. To prepare a calibration curve, PAI-1 solutions without the compound according to the present invention (solutions where the final concentrations being 100, 50, 25, 12.5, 6.25, 3.13, or 1.56 ng/ml PAI-1) were added at 100 µl/well, and the plate was incubated for 60 minutes at room temperature, as standard.
After incubation, the reaction mixture was removed by suction, and each well was rinsed with Wash Buffer. Next, anti-human PAI-1 monoclonal antibody (PROGEN Inc.) diluted with Buffer C to be 3.0 µg/ml was added to the 96-well plate at 100 µl/well, and the plate was incubated for 1 hour at room temperature. After rinsing each well with Wash Buffer, alkaline phosphatase-labeled goat anti-mouse IgG (H+L) (Jackson ImmunoResearch, Inc.) diluted with Buffer D to be 0.12 µg/ml was added at 100 µl/well, and the plate was incubated for 1 hour at room temperature. After rinsing each well with Wash Buffer, 1.0 mg/ml p-Nitrophenyl Phosphate (SIGMA) was added to the 96-well plate at 100 µl/well to start the reaction. After 30 to 60 minutes, 25 µl of 0.5 N NaOH was added to stop the reaction, and the absorbance was measured at 405 nm using a multiplate reader (GENios; TECAN G.M.B.H.).
Based on the calibration curve prepared from the standard wells, amounts of PAI-1 bound to tPA in the wells that had been treated with the compound according to the present invention were calculated, and the PAI-1 inhibition rates by the compounds according to the present invention were obtained by the following equation. [API-1InhibitionRate(%)] = [1-(amountofPAI-1boundtotPaonthewellbytreatmentwiththecompondaccordingtothepresentinvention)/(amountofPAI-1boundtotPAonthewellbytreatmentwithPAI-1solutionnotincledingthecompondaccordingtotheinvention(solution having the final concentration of 50 nb/ml PAI-1)] × 100 [formula] • <Composition of Buffer A> 0.1 M Tris-HCl, 150 mM NaCl, pH 7.7 • <Composition of Buffer B> 50 mM sodium phosphate, 0.1 M NaCl, 1 mM EDTA, pH 6.6 • <Composition of Buffer C> 50 mM sodium phosphate, 100 mM NaCl, pH 7.4 • <Composition of Buffer D> 0.01 M Tris-HCl, 0.25 M NaCl, pH 8.0 • <Compositon of Wash Buffer> 0.05 % Tween 20, 0.1 % BSA in Buffer A • <Composition of p-Nitrophenyl Phosphate solution> 1 M Diethanolamine 0.5 mM MgCl2, p-Nitrophenyl phosphate, pH 9.8
(An ELISA detects its analyte on a solid surface through an enzyme-linked reagent.)

In assay [2] the target is T1, recombinant human PAI-1. Description: biochemical. The settings on record: for inhibition at 5 µM: read-out: Inhibition Rate of PAI-1 Activity (%), Compound Concentration 5µM; for inhibition at 10 µM: read-out: Inhibition Rate of PAI-1 Activity (%), Compound Concentration 10µM; for inhibition at 25 µM: read-out: Inhibition Rate of PAI-1 Activity (%), Compound Concentration 25µM.

Assay [3] deals with T2, recombinant rat PAI-1 (Rattus norvegicus, UniProt P20961).
T2 sequence (P20961 24-402): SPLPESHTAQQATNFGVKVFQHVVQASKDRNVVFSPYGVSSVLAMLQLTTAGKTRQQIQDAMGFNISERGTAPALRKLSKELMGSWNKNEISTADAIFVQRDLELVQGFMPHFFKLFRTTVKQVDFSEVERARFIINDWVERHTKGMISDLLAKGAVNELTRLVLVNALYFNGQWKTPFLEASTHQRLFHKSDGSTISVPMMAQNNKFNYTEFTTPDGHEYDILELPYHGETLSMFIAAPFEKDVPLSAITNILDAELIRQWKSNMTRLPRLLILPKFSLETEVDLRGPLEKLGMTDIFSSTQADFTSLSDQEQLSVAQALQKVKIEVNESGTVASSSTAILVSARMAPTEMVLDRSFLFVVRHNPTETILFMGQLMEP
The assay is described as follows: biochemical. Conditions: read-out: Inhibition Rate of PAI-1 Activity (%).

Assay [4] addresses T1, recombinant human PAI-1. The assay is described as follows: Test Example 2: Human PAI-1 Inhibitory Activity (pH 7.4 HEPES buffer, 10 minutes incubation with two-chain tPA). Format: biochemical. Further details: purchased Molecular Innovations, Inc. Conditions: read-out: Inhibition Rate of PAI-1 Activity (%). On the procedure:
0.1 M HEPES, 0.1 M NaCl. 1 mM EDTA. 0.1 % Polyethylene glycol 8,000 (Hampton Research Corporation),
2 mM Dimethyldecylphoshine oxide [Apo-10] (Fluka Corporation)

A value given as a limit tells only on which side of the number the result lay.

T1 sequence (P05121 24-402): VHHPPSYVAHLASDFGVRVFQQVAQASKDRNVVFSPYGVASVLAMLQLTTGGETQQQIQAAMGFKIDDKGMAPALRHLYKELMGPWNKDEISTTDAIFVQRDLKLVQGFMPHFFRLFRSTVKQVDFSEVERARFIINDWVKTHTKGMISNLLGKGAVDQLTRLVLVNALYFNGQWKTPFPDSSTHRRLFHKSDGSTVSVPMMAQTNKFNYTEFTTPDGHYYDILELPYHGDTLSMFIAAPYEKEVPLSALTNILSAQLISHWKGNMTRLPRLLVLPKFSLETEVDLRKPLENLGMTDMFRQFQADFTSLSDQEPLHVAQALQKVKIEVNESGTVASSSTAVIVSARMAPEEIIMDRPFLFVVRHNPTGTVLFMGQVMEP

`CCCCOc1ccc(-c2ccc(OC(F)(F)F)cc2)cc1N(Cc1ccc(C(C)(C)C)cc1)C(=O)C(=O)O` [Compound 189]: in assay [1], the inhibition at 0.3 µM turned out to be 16%, the inhibition at 1 µM is 30% and the inhibition at 3 µM came out at 70%. Besides, in assay [2], the inhibition at 5 µM was found to be 87% and the inhibition at 10 µM worked out at 95%. In addition, in assay [3], the inhibition at 0.3 µM was 9%, the inhibition at 1 µM amounted to 32%, the inhibition at 3 µM was 93% and the inhibition at 10 µM is over 99%. Also, in assay [4], the inhibition at 0.1 µM was determined as 4%, the inhibition at 0.3 µM was determined as 2%, the inhibition at 1 µM was 60% and the inhibition at 3 µM came out at 97%.

As for `COc1cc(OC)c(N(Cc2ccc(C(C)(C)C)cc2)C(=O)C(=O)O)cc1-c1ccc(OC(F)(F)F)cc1` [Compound 190], in assay [1], the inhibition at 0.3 µM was determined as 0%, the inhibition at 1 µM amounted to 9% and the inhibition at 3 µM turned out to be 55%. Further, in assay [2], the inhibition at 5 µM stood at 65%, the inhibition at 10 µM was found to be 91% and the inhibition at 25 µM was found to be 91%. For the same compound, in assay [3], the inhibition at 0.3 µM was 0%, the inhibition at 1 µM came to 11%, the inhibition at 3 µM came out at 66% and the inhibition at 10 µM was over 99%. In addition, in assay [4], the inhibition at 0.1 µM came out at 2%, the inhibition at 0.3 µM amounted to 3%, the inhibition at 1 µM was determined as 27% and the inhibition at 3 µM amounted to 95%.

Regarding `CCCCCOc1ccc(-c2ccc(OC(F)(F)F)cc2)cc1N(Cc1ccc(C(C)(C)C)cc1)C(=O)C(=O)O` [Compound 194], in assay [1], the inhibition at 0.3 µM turned out to be 6%, the inhibition at 1 µM is 22% and the inhibition at 3 µM was determined as 56%. Moreover, in assay [2], the inhibition at 5 µM was found to be 84% and the inhibition at 10 µM stood at 84%. Moreover, in assay [3], the inhibition at 0.3 µM amounted to 5%, the inhibition at 1 µM turned out to be 39%, the inhibition at 3 µM worked out at 98% and the inhibition at 10 µM was over 99%. Moreover, in assay [4], the inhibition at 0.1 µM stood at 0%, the inhibition at 0.3 µM is 7%, the inhibition at 1 µM amounted to 63% and the inhibition at 3 µM was 98%.

Take `CCC(CC)Oc1ccc(N(Cc2ccc(C(C)(C)C)cc2)C(=O)C(=O)O)cc1-c1ccc(OC(F)(F)F)cc1` [Compound 197]: in assay [1], the inhibition at 0.3 µM was 21%, the inhibition at 1 µM is 34% and the inhibition at 3 µM came to 73%. Further, in assay [2], the inhibition at 5 µM turned out to be 90%, the inhibition at 10 µM was found to be 92% and the inhibition at 25 µM came out at 73%. Also, in assay [3], the inhibition at 0.3 µM was 0%, the inhibition at 1 µM came out at 37%, the inhibition at 3 µM stood at 84% and the inhibition at 10 µM came out at 75%. Further, in assay [4], the inhibition at 0.1 µM was 6%, the inhibition at 0.3 µM is 1%, the inhibition at 1 µM came out at 38% and the inhibition at 3 µM is over 99%.

`CCCOc1ccc(N(Cc2ccc(C(C)(C)C)cc2)C(=O)C(=O)O)c(-c2ccc(OC(F)(F)F)cc2)c1` [Compound 198]: in assay [1], the inhibition at 0.3 µM stood at 6%, the inhibition at 1 µM is 4% and the inhibition at 3 µM was found to be 33%. Moreover, in assay [2], the inhibition at 5 µM is 79%, the inhibition at 10 µM stood at 95% and the inhibition at 25 µM was found to be 85%. Moreover, in assay [3], the inhibition at 0.3 µM amounted to 4%, the inhibition at 1 µM worked out at 12%, the inhibition at 3 µM is 84% and the inhibition at 10 µM was found to be 89%. For the same compound, in assay [4], the inhibition at 0.1 µM amounted to 11%, the inhibition at 0.3 µM amounted to 8%, the inhibition at 1 µM amounted to 33% and the inhibition at 3 µM is over 99%.

Turning to `CCC(CC)Oc1ccc(-c2ccc(OC(F)(F)F)cc2)cc1N(Cc1ccc(C(C)(C)C)cc1)C(=O)C(=O)O` [Compound 199], in assay [1], the inhibition at 0.3 µM is 18%, the inhibition at 1 µM was 41% and the inhibition at 3 µM was 73%. Also, in assay [2], the inhibition at 5 µM turned out to be 83% and the inhibition at 10 µM worked out at 89%. In assay [3], the inhibition at 0.3 µM amounted to 0%, the inhibition at 1 µM turned out to be 35%, the inhibition at 3 µM came to 97% and the inhibition at 10 µM was over 99%. For the same compound, in assay [4], the inhibition at 0.1 µM was 9%, the inhibition at 0.3 µM was 13%, the inhibition at 1 µM came out at 64% and the inhibition at 3 µM was over 99%.

With `CCCCc1ccc(CN(C(=O)C(=O)O)c2ccc(-c3ccc(C(C)(C)C)cc3)cc2)cc1` [Compound 206], in assay [1], the inhibition at 0.3 µM is 0%, the inhibition at 1 µM came out at 17% and the inhibition at 3 µM is 40%. Moreover, in assay [2], the inhibition at 5 µM amounted to 78%, the inhibition at 10 µM is 92% and the inhibition at 25 µM stood at 89%. In assay [3], the inhibition at 0.3 µM is 3%, the inhibition at 1 µM turned out to be 29%, the inhibition at 3 µM came to 90% and the inhibition at 10 µM was found to be 88%. Moreover, in assay [4], the inhibition at 0.1 µM stood at 3%, the inhibition at 0.3 µM was found to be 13%, the inhibition at 1 µM was 66% and the inhibition at 3 µM is over 99%.

Regarding `CCN(CC)c1ccc(N(Cc2ccc(C(C)(C)C)cc2)C(=O)C(=O)O)c(-c2ccc(OC(F)(F)F)cc2)c1` [Compound 208], in assay [1], the inhibition at 0.3 µM is 0%, the inhibition at 1 µM was 6% and the inhibition at 3 µM is 36%. For the same compound, in assay [2], the inhibition at 5 µM came to 89% and the inhibition at 10 µM amounted to 98%. Besides, in assay [3], the inhibition at 0.3 µM is 0%, the inhibition at 1 µM came out at 12%, the inhibition at 3 µM was found to be 82% and the inhibition at 10 µM worked out at 81%. In addition, in assay [4], the inhibition at 0.1 µM is 10%, the inhibition at 0.3 µM was 1%, the inhibition at 1 µM worked out at 36% and the inhibition at 3 µM stood at 99%.
